Data published in US20110166078A1, “OLIGOSACCHARIDE COMPOUNDS FOR USE IN MOBILISING STEM CELLS” (ENDOTIS PHARMA, priority 2008, published 2011).

Experiments:
PDGF-β = PDGF-β (Homo sapiens, UniProt P01127); assay: PDGF-β/heparin competition assay by SPR (Biacore); assay type: binding; conditions: 10 nM PDGF-β, biotinylated heparin, Sensorchip C1
Method: (§1) Heparin or low molecular weight heparin (6 kDa) from SIGMA were biotinylated at the reducing end and immobilized on a Biacore sensorchip. Different concentrations of the compounds of the present invention were co-incubated at a fixed concentration of targets: FGF-2, PDGF-β, VEGF-A or SDF-1α for 30 minutes. The mixture was then injected onto the streptavidin control (control reference) and HP surfaces. Only free growth factor (GF) or chemokine, i.e. the target molecules not bound to compounds of the present invention, were trapped on the heparin surface. From the binding of free targets on heparin, the percentages of inhibition were calculated and then reported in function of compound concentrations. The plot was fitted with a four-parameter model and IC50 was calculated. The 0% inhibition value was obtained for the injection of the studied target in running-buffer, and the 100% inhibition value was obtained for the injection of the studied target co-incubated with 10 μM of low molecular weight heparin 6 kDa. A PDGF-β/heparin competition assay using the Biacore technology was performed using the following conditions: 10 nM PDGF-β, biotinylated heparin, Reference Streptavidin, Sensorchip C1, HBS-P, Regeneration NaCl 2M. IC50 values of compounds of the present invention were determined using the Biacore technology for the growth factor and chemokine/heparin competition assays that contained the following proteins: VEGF-A, SDF-1α, FGF-2 and PDGF-β.

SDF-1α = SDF-1α (Homo sapiens, UniProt P48061); assay: SDF-1α/heparin competition assay by SPR (Biacore); assay type: binding; conditions: 96 nM SDF-1α, biotinylated low molecular weight heparin (6 kDa), Sensorchip SA
Method: as §1, with “kDa.” for “kDa. A PDGF-β/heparin competition assay using the Biacore technology was performed using the following conditions: 10 nM PDGF-β, biotinylated heparin, Reference Streptavidin, Sensorchip C1, HBS-P, Regeneration NaCl 2M. IC50 values of compounds of the present invention were determined using the Biacore technology for the growth factor and chemokine/heparin competition assays that contained the following proteins: VEGF-A, SDF-1α, FGF-2 and PDGF-β.”
A SDF-1α/heparin competition assay using the Biacore technology was performed using the following conditions: 96 nM SDF-1α, biotinylated low molecular weight heparin (6 kDa), Reference Streptavidin, Sensorchip SA, HBS-P, Regeneration NaCl 2M
IC50 values of compounds of the present invention were determined using the Biacore technology for the growth factor and chemokine/heparin competition assays that contained the following proteins: VEGF-A, SDF-1α, FGF-2 and PDGF-β.

[1] = test system: FGF-2-induced NHDF (Normal Human Dermal Fibroblast) cell proliferation; assay: FGF-2-induced NHDF proliferation assay; assay type: cell-based; conditions: compound 0.1 to 30 μM
Method: (§2) The activities of the compounds of the present invention were tested using a proliferation assay, such as the one described by N. Ali et al., J Pharmacol Sci, 2005, 98, 130-141. A defined number of cells is seeded in each well of a culture plate. In order to stimulate cell proliferation, a growth factor is added in some wells, while others remain unstimulated (basal proliferation conditions). To monitor the effects of substances of interest (oligosaccharides compounds according to the present invention) on basal and growth factor-induced cell proliferation, substances of interest are added at different concentrations (i.e. 0.1, 0.3, 1, 3, 10 or 30 μM) in presence or absence of the growth factor, respectively. After an incubation period of 24 hours, the total number of cells is estimated in all samples (generally through an indirect method, such as incorporation of radioactivity into the newly synthesised DNA or colorimetric assays based on cellular enzyme activities or metabolite production). The total number of cells for the control sample in which no substance of interest nor growth factor have been added is set to 1. The total number of cells in all the other samples is compared to this value in order to obtain the relative proliferation index.
Typically, cells are seeded in 48 or 96-well plates. After 2 h (i.e. the time required for cells to adhere to the support) the normal culture media is replaced by a minimal essential culture media in which cells are grown for 24 h (starvation period). This step is used to reduce cell growth (cell metabolism is slowed down in order to better visualise the growth factor stimulation effect) before adding an angiogenic protein, such as a growth factor i.e. FGF-2 or PDGF-β. No growth factor is added in basal proliferation conditions (independently of the presence or absence of the oligosaccharide of the present invention). […]
(§3) Following addition of the angiogenic protein (growth factor) over a 24 h stimulation period, a commercial reagent containing a substrate for a cellular enzyme is added and incubated for couple of hours. The degradation of the substrate by the enzyme leads to the production of a coloured product which is titrated by absorbance measurement. […]
In the following experiments the effects of compounds 240 and 241 (concentrations from 0.1 to 30 μM) were evaluated on FGF-2-induced NHDF (Normal Human Dermal Fibroblast) cell proliferation. […]

[2] = test system: PDGF-β-induced NHDF proliferation; assay: PDGF-β-induced NHDF proliferation assay; assay type: cell-based, human; conditions: PDGF-β 10 ng/ml; FIGS. 8-12
Method: as §2
Typically, cells are seeded in 48 or 96-well plates. After 2 h (i.e. the time required for cells to adhere to the support) the normal culture media is replaced by a minimal essential culture media in which cells are grown for 24 h (starvation period). This step is used to reduce cell growth (cell metabolism is slowed down in order to better visualise the growth factor stimulation effect) before adding an angiogenic protein, such as a growth factor i.e. FGF-2 or PDGF-β. No growth factor is added in basal proliferation conditions (independently of the presence or absence of the oligosaccharide of the present invention). To evaluate the inhibition of the oligosaccharide compounds according to the present invention on cell proliferation, the angiogenic protein (growth factor) is added at a fixed concentration (from 5 ng/ml to 10 ng/ml) with increasing amounts of oligosaccharide compounds (0.1, 0.3, 1, 3, 10 or 30 μM), which allows the IC50 value to be estimated (i.e. the oligosaccharide concentration at which the stimulatory effect of the growth factor is inhibited by 50%).
as §3

| Structure (SMILES) | IC50 (PDGF-β) [nM] | IC50 (SDF-1α) [nM] | inhibition of FGF-2-induced fibroblast proliferation ([1]; FGF-2 5 ng/ml, FIGS. 6-7) | basal NHDF proliferation ([1]; control conditions, no growth factor) | inhibition of PDGF-β-induced NHDF proliferation [2] |
| --- | --- | --- | --- | --- | --- |
| C#CCCCOC1OC(COS(=O)(=O)[O-])C(OC2OC(C(=O)[O-])C(OC3OC(COS(=O)(=O)[O-])C(OC4OC(C(=O)[O-])C(OC5OC(COS(=O)(=O)[O-])C(OC6OC(C(=O)[O-])C(OC7OC(COS(=O)(=O)[O-])C(OC8OC(C(=O)[O-])C(OCc9ccccc9)C(OCc9ccccc9)C8OS(=O)(=O)[O-])C(OCc8ccccc8)C7NS(=O)(=O)[O-])C(OCc7ccccc7)C6OS(=O)(=O)[O-])C(OCc6ccccc6)C5NS(=O)(=O)[O-])C(OCc5ccccc5)C4OS(=O)(=O)[O-])C(OCc4ccccc4)C3NS(=O)(=O)[O-])C(OCc3ccccc3)C2OS(=O)(=O)[O-])C(OCc2ccccc2)C1NS(=O)(=O)[O-].[Na+].[Na+].[Na+].[Na+].[Na+].[Na+].[Na+].[Na+].[Na+].[Na+].[Na+].[Na+].[Na+].[Na+].[Na+].[Na+] (centres unmarked) [Compound 240] | 10.9 | 23 | inhibit FGF-2-induced fibroblast proliferation (starting in the micromolar range) | did not seem to be affected | inhibit PDGF-β proliferation (starting in the micromolar range) |
| C#CCCCOC1OC(COS(=O)(=O)[O-])C(OC2OC(C(=O)[O-])C(OC3OC(COS(=O)(=O)[O-])C(OC4OC(C(=O)[O-])C(OC5OC(COS(=O)(=O)[O-])C(OC6OC(C(=O)[O-])C(OCc7ccccc7)C(OCc7ccccc7)C6OS(=O)(=O)[O-])C(OCc6ccccc6)C5NS(=O)(=O)[O-])C(OCc5ccccc5)C4OS(=O)(=O)[O-])C(OCc4ccccc4)C3NS(=O)(=O)[O-])C(OCc3ccccc3)C2OS(=O)(=O)[O-])C(OCc2ccccc2)C1NS(=O)(=O)[O-].[Na+].[Na+].[Na+].[Na+].[Na+].[Na+].[Na+].[Na+].[Na+].[Na+].[Na+].[Na+] (centres unmarked) [Compound 239] | 85 | 43 | – | – | inhibit PDGF-β proliferation (starting in the micromolar range) |
